Measured values from PMC11847706, “Deep learning enhances the prediction of HLA class I-presented CD8^+ T cell epitopes in foreign pathogens” (Nature Machine Intelligence, 2025).

Columns and labels:
PBMCs = assay: Ex vivo IFNγ ELISpot assay; assay type: cell-based, human; conditions: for Effector CD8^+ T cell responses across multiple individuals: ex vivo IFNγ ELISpot, HLA-A*02:01-restricted, Fig. 6c
Experimental: IFNγ ELISpot assays were performed according to the manufacturer’s instructions (Mabtech). PBMCs were incubated with individual peptides from EBV at a final concentration of 0.5 μg ml^−1 for 16–18 h. Positive controls were anti-human CD3 (Clone OKT3, BioLegend, 0.5 μg ml^−1) and anti-human CD28 (Clone CD28.2, BioLegend, 0.5 μg ml^−1) antibodies. The number of spot-forming units in the highest-value DMSO control well was subtracted from each experimental well. Responses were considered positive if both replicates had greater than or equal to five spot-forming units per well above background.

CD8^+ T cells = assay: Ex vivo proliferation assay (CellTrace Far Red); assay type: cell-based, human; conditions: HLA-A*02:01-restricted, Fig. 6d
Experimental: PBMCs were suspended at 1 × 10^6 cells per ml in 1 μM CellTrace Far Red dye (ThermoFisher) in PBS and incubated at 37 °C for 20 min. Cells were protected from light and mixed every 5 min during the incubation. RPMI supplemented with 10% fetal bovine serum was added to quench the reaction for 5 min, followed by centrifugation at 1,500 rpm for 3 min before resuspension in culture media. Cells were plated into 96-well U-bottom plates (Corning) (200,000 cells per well in 200 μl of culture media) and incubated with individual EBV peptides at a concentration of 0.5 μg ml^−1 for 5 days. Cells were washed with PBS supplemented with 2% fetal bovine serum and stained with anti-human CD3-BUV395 (Clone UCHT1, BD Biosciences, 1:100 dilution), anti-human CD4-PE-Cy7 (Clone OKT4, BioLegend, 1:100 dilution), anti-human CD8-BV605 (Clone SK1, BioLegend, 1:100 dilution) and live/dead violet viability dye (Life Technologies). Cells were washed and fixed in 2% paraformaldehyde and flow cytometric analysis was performed on a BD LSR Fortessa (BD Biosciences).

Sequence	Immunogenicity (T cell reactivity) (PBMCs; HLA-A*02:01, 15mer, LMP2A: 71-85)	Effector CD8^+ T cell responses across multiple individuals (PBMCs)	Memory CD8^+ T cell responses across multiple individuals (CD8^+ T cells)
HSDYQPLGTQDQSLY	immunogenic	–	–
SIIPRTPDV [A*02-SV9]	–	capable of eliciting	capable of eliciting
YVLDHLIVV [A*02-YV9]	–	capable of eliciting	capable of eliciting
